Reference: patent US20250180581A1, “COMPOSITIONS AND METHODS FOR CHARACTERIZING AND TREATING PSYCHIATRIC ILLNESS” (Trustees of Tufts College, priority 2023, published 2025)

How the values were obtained:
women with PPD = settings: zuranolone treatment; cited from earlier work
[1] = system: mice subjected to chronic unpredictable stress (CUS); experiment: Chronic unpredictable stress (CUS) in mice, behavioral state (learned helplessness, social interaction, anhedonia); assay type: in vivo; settings: exogenous allopregnanolone treatment after 3 weeks CUS; FIGS. 3B-3D
Text: In each graph, from left to right, the first bar is control, second bar is mice following CUS, and the third bar is mice following CUS and with exogenous allopregnanolone treatment.
Decreased expression of 5α-reductase 1 and 2 is associated with chronic stress, a major risk factor for depression. […] Reduced endogenous neurosteroids impaired the affective state.

Row | SMILES | women with PPD exhibiting a rapid antidepressant response (women with PPD) | behavioral state of the mice following CUS (learned helplessness, social interaction, anhedonia) [1]
1 | C[C@@]1(O)CC[C@H]2[C@H](CC[C@@H]3[C@@H]2CC[C@]2(C)[C@@H](C(=O)Cn4cc(C#N)cn4)CC[C@@H]32)C1 [zuranolone] | 57% | –
2 | CC(=O)[C@H]1CC[C@H]2[C@@H]3CC[C@H]4C[C@H](O)CC[C@]4(C)[C@H]3CC[C@]12C [allopregnanolone] | – | restored the behavioral state
